Measurements taken from patent publication US20140011755A1, “Cardiac Glycosides for Treating Autoimmune Disease” (Department of Veterans Affairs, priority 2010, published 2014).

Assays:
[1] = tested on: SLE-like disease; assay: MRL-Ipr mouse model of systemic lupus erythematosus; type: in vivo, MRL-Ipr female mice
Method: FIG. 16. […] SLE-like disease progression in MRL-Ipr female mice (Jackson Laboratories) was evaluated. Briefly, 10 mice per treatment arm were followed for the development of SLE-like disease over the course of 16 weeks. […] Animals were scored on a weekly basis for proteinuria and survived until 23 weeks of age. Data represent the average proteinuria concentration in urine collected from each mouse using Uristix (Bayer Corp.). Error bars represent SEM. The Mann-Whitney test was used to determine significance between vehicle and digitoxin groups. Asterisks represent significant P values <0.01.
FIG. 17. […] At endpoint, 23 week old female MRL-Ipr mice were sacrificed and kidneys were fixed, embedded in paraffin, sectioned longitudinally and stained for glomeruli with periodic acid-Schiff stain (Histotec). (A) Depiction of a section taken from a representative vehicle treated kidney. (B) Depiction of a section taken from a representative digitoxin treated kidney.
FIG. 18. […] Endpoint serum titers were taken for each mouse and the concentration of anti-double-stranded DNA (ANA) antibodies were assessed (A). […] ANA antibodies were measured using ELISA (Alpha Diagnostic International). Error bars represent the SEM. The student t-test was used to determine significance. Asterisks represent significant P values.
Cardiac glycosides are used for the treatment of systemic lupus erythematosus and other forms of multi-system inflammatory diseases. […] Studies are conducted to determine the ability of cardiac glycosides to treat SLE. The effectiveness of cardiac glycosides at treating SLE disease progression in MRL-Ipr female mice (Jackson Laboratories) was evaluated. Briefly, 10 mice per experimental arm were followed for the development of SLE disease. […] Animals were scored on a weekly basis for proteinuria and survived until 23 weeks of age (FIG. 16). Weekly proteinuria monitoring was performed using Uristix (Bayer Corp.). […] Endpoint serum titres of double-stranded DNA (ANA) antibodies for each mouse were assessed (FIG. 18 A). […] ANA antibodies were measured using ELISA (Alpha Diagnostic International). […]

[2] = tested on: IL-10 cytokine secretion from B cells; assay: IL-10 secretion (ELISA) by splenic B cells from treated MRL-Ipr mice; type: cell-based
Method: FIG. 19. […] MACS-purified B cells from vehicle or digitoxin-treated 23 week-old female MRL-Ipr mice were harvested from the spleen. 2×10^5 B cells were incubated either media, mifespristone (0.8 nM), Jak inhibitor I (15 nM), STAT3 inhibitor VI (500 μM) or dasatinib (1.1 nM) for 60 minutes, washed and incubated for 48 hr at 37° C. Cell supernatant was collected and ELISAs were used to quantify the amount of secreted IL-10 cytokine in each condition. Data represent the average of triplicate conditions and error bars represent the SEM. Statistical significance was performed using the student t-test.

[3] = tested on: nuclear phospho-p65; assay: Western blot of nuclear phospho-p65 in CD40L-stimulated CIA B cells; type: cell-based, mice; conditions: 33 nM for 1 h, 50 ng/mL CD40L
Method: FIG. 8. […] Values represent mean light units produced. Error bars represent SEM, and statistical significance was determined by unpaired T-test. Single and double asterisks represent P-values of 0.01 or 0.001, respectively. […] Samples were harvested at designated time points and were fractionated into nuclear and cytoplasmic lysates (Pierce). Lysates were quantified using BCA (Pierce), and were equally loaded according to total protein. Membranes were probed for levels of nuclear phospho-p65 (ReIA), phospho-ReIB, and histone (histone served as loading control and fractionation method control) and cytoplasmic degradation of IκBα (beta-tubulin served as loading control and fractionation method control).
HeLa cells were co-transfected with the reporter pNFκB-luc and control vector pTAL (Renilla) for 18 h prior to incubation with 0-500 nM cardiac glycoside for 6 h. Cells are stimulated with 50 ng/mL TNF. […] FIG. 8 B).

[4] = tested on: splenocytes derived from mice with CIA; assay: CIA splenocyte proliferation (3H-thymidine incorporation); type: cell-based
Method: (§1) Activity was monitored by ^3H-thymidine incorporation as a read-out for proliferation. […] Cell type(s) in the splenocyte population responsive to therapeutic concentrations of cardiac glycoside were determined by identifying the population of cells that responded to a dose-dependent decrease in activity in the presence of stimulant, defined as ligand(s) binding to cognate receptor(s). Activity was analyzed by: ^3H-thymidine or BrdU incorporation to monitor proliferation or by ELISA to monitor cytokine production. Splenic T lymphocytes were isolated by negative selection (MACS, Miltinyi Biotec) and are stimulated with PMA, ConA or through the TCR with anti-CD3/anti-CD28 Dynabeads (Invitrogen) and collagen II (all non-TNFR receptors/pathways). […] Peritoneal and bone marrow-derived macrophages were isolated from CIA mice in the presence of M-CSF growth factor and were stimulated with TNF and CD40 ligand (CD40L). […] Splenic B lymphocytes were isolated by negative selection (MACS, Miltinyi Biotec) and were stimulated with BAFF (BLyS), CD40L or through the BCR with anti-IgM u-chain specific antibodies.

[5] = target: T1, CD40 (Mus musculus, UniProt P27512); type: cell-based, mice; conditions: pre-treatment with 3.3 or 33 nM
T1 construct: Peritoneal and bone marrow-derived macrophages were isolated from CIA mice; endogenous in cells; host or cells: peritoneal and bone marrow-derived macrophages from CIA mice
T1 sequence (P27512 20-289): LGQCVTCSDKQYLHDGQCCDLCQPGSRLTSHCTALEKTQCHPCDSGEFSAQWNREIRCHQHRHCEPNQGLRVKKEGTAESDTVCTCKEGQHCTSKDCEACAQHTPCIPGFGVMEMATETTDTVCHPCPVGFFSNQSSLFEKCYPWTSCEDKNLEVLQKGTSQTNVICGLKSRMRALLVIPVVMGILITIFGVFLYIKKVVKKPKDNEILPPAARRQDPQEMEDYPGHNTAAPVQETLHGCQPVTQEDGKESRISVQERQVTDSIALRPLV
Method: as §1

[6] = tested on: TNFR; type: cell-based, mice; conditions: pre-treatment with 3.3 or 33 nM
Method: as §1

[7] = tested on: T cell receptor; type: cell-based, mice; conditions: non-TNFR family member; therapeutic concentrations
Method: as §1

[8] = tested on: B cell receptor (membrane Ig); assay: B cell receptor mediated B cell proliferation; type: cell-based, mice; conditions: pre-treatment of B cells; anti-IgM stimulation
Method: as §1

C[C@H]1O[C@@H](O[C@H]2[C@@H](O)C[C@H](O[C@H]3[C@@H](O)C[C@H](O[C@H]4CC[C@@]5(C)[C@H](CC[C@@H]6[C@@H]5CC[C@]5(C)[C@@H](C7=CC(=O)OC7)CC[C@]65O)C4)O[C@@H]3C)O[C@@H]2C)C[C@H](O)[C@@H]1O [Digitoxin, digitoxin]
disease severity (average proteinuria) in experimental lupus ([1]; 0.6 mg/kg every-4-days sublingual from week 8, 10 mice per arm, Mann-Whitney P<0.01): decrease disease severity
kidney pathology (periodic acid-Schiff stained glomeruli) ([1]; 23 week old mice at endpoint, 0.6 mg/kg every-4-days sublingual): decrease kidney pathology
endpoint serum anti-double-stranded DNA (ANA) antibodies ([1]; endpoint serum, ELISA): inhibit autoantibody production
secreted IL-10 cytokine ([2]; 2×10^5 B cells from vehicle or digitoxin-treated 23 week-old mice, 48 hr, ELISA): induces IL-10 cytokine secretion
mechanism dependence of IL-10 secretion (inhibitor pre-incubation) ([2]; mifespristone 0.8 nM, Jak inhibitor I 15 nM, STAT3 inhibitor VI 500 μM or dasatinib 1.1 nM for 60 minutes): dependent on steroid receptors, Jak activity, and STAT3 activity, but not BCR-ABL or Src-like Family Kinase activity
amount of nuclear phospho-p65 following CD40L stimulation [3]: significantly reduced
proliferation of unstimulated or collagen II-stimulated splenocytes [4]: inhibits the proliferation
CD40L-mediated activation of macrophage through CD40 [5]: inhibits
TNF-mediated activation of macrophage through TNFR [6]: inhibits
proliferation of T cells in response to stimulation through the T cell receptor [7]: did not alter proliferation
B cell receptor mediated B cell proliferation [8]: did not inhibit
